Laboratory results reported in PMC12748989 (Nature Communications, 2025).

Assays:
PBMC = conditions: 12.5 µM

SMILES | Average (percentage cell inhibition), Dmastoparan MDA-MB231 12.5uM (MDA-MB-231 cells) [%] | Average (percentage cell inhibition), Mastoparan PBMC (PBMC) [%]
CC[C@H](C)[C@H](N)C(=O)N[C@@H](CC(N)=O)C(=O)N[C@@H](CC(C)C)C(=O)N[C@@H](CCCCN)C(=O)N[C@@H](C)C(=O)N[C@@H](CC(C)C)C(=O)N[C@@H](C)C(=O)N[C@@H](C)C(=O)N[C@@H](CC(C)C)C(=O)N[C@@H](C)C(=O)N[C@@H](CCCCN)C(=O)N[C@H](C(=O)N[C@H](C(=O)N[C@@H](CC(C)C)C(N)=O)[C@@H](C)CC)[C@@H](C)O [T12] | 27.1643 | 10.5164
CC[C@H](C)[C@H](N)C(=O)N[C@@H](CC(N)=O)C(=O)N[C@@H](CC(C)C)C(=O)N[C@@H](CCCCN)C(=O)N[C@@H](C)C(=O)N[C@@H](CC(C)C)C(=O)N[C@@H](C)C(=O)N[C@@H](C)C(=O)N[C@@H](CC(C)C)C(=O)N[C@@H](C)C(=O)N[C@@H](CCCCN)C(=O)N[C@@H](CCCCN)C(=O)N[C@H](C(=O)N[C@@H](C)C(N)=O)[C@@H](C)CC [A14] | 12.3553 | 6.423
CC[C@H](C)[C@H](N)C(=O)N[C@@H](CC(N)=O)C(=O)N[C@@H](CC(C)C)C(=O)N[C@@H](CCCCN)C(=O)N[C@@H](C)C(=O)N[C@@H](CC(C)C)C(=O)N[C@@H](C)C(=O)N[C@@H](C)C(=O)N[C@@H](CC(C)C)C(=O)N[C@@H](C)C(=O)N[C@@H](CCCCN)C(=O)N[C@@H](CCC(=O)O)C(=O)N[C@H](C(=O)N[C@@H](CC(C)C)C(N)=O)[C@@H](C)CC [E12] | 21.4723 | 4.97
CC[C@H](C)[C@H](N)C(=O)N[C@@H](CC(N)=O)C(=O)N[C@@H](CC(C)C)C(=O)N[C@@H](CCCCN)C(=O)N[C@@H](C)C(=O)N[C@@H](CC(C)C)C(=O)N[C@@H](C)C(=O)N[C@@H](C)C(=O)N[C@@H](CC(C)C)C(=O)N[C@@H](C)C(=O)N[C@@H](CCCCN)C(=O)N[C@@H](CCCCN)C(=O)N[C@@H](Cc1c[nH]c2ccccc12)C(=O)N[C@@H](CC(C)C)C(N)=O [W13] | 70.7641 | 24.9289
CC[C@H](C)[C@H](N)C(=O)N[C@@H](CC(N)=O)C(=O)N[C@@H](CC(C)C)C(=O)N[C@@H](CCCCN)C(=O)N[C@@H](C)C(=O)N[C@@H](CC(C)C)C(=O)N[C@@H](C)C(=O)N[C@@H](C)C(=O)N[C@@H](CC(C)C)C(=O)N[C@@H](CC(N)=O)C(=O)N[C@@H](CCCCN)C(=O)N[C@@H](CCCCN)C(=O)N[C@H](C(=O)N[C@@H](CC(C)C)C(N)=O)[C@@H](C)CC [N10] | 9.754 | 1.8653
CC[C@H](C)[C@H](N)C(=O)N[C@@H](CC(N)=O)C(=O)N[C@@H](CC(C)C)C(=O)N[C@@H](CCCCN)C(=O)N[C@@H](C)C(=O)N[C@@H](CC(C)C)C(=O)N[C@@H](CCC(=O)O)C(=O)N[C@@H](C)C(=O)N[C@@H](CC(C)C)C(=O)N[C@@H](C)C(=O)N[C@@H](CCCCN)C(=O)N[C@@H](CCCCN)C(=O)N[C@H](C(=O)N[C@@H](CC(C)C)C(N)=O)[C@@H](C)CC [E7] | 27.5958 | 6.221
CC[C@H](C)[C@H](N)C(=O)N[C@@H](CC(N)=O)C(=O)N[C@@H](CC(C)C)C(=O)N[C@H](C(=O)N[C@@H](C)C(=O)N[C@@H](CC(C)C)C(=O)N[C@@H](C)C(=O)N[C@@H](C)C(=O)N[C@@H](CC(C)C)C(=O)N[C@@H](C)C(=O)N[C@@H](CCCCN)C(=O)N[C@@H](CCCCN)C(=O)N[C@H](C(=O)N[C@@H](CC(C)C)C(N)=O)[C@@H](C)CC)[C@@H](C)O [T4] | 29.8701 | 12.9948
CC[C@H](C)[C@H](N)C(=O)N[C@@H](CC(N)=O)C(=O)N[C@@H](CC(C)C)C(=O)N[C@@H](CCCCN)C(=O)N[C@@H](C)C(=O)N[C@@H](CC(C)C)C(=O)N[C@@H](Cc1ccc(O)cc1)C(=O)N[C@@H](C)C(=O)N[C@@H](CC(C)C)C(=O)N[C@@H](C)C(=O)N[C@@H](CCCCN)C(=O)N[C@@H](CCCCN)C(=O)N[C@H](C(=O)N[C@@H](CC(C)C)C(N)=O)[C@@H](C)CC [Y7] | 74.0703 | 16.9599
CC[C@H](C)[C@H](N)C(=O)N[C@@H](CC(N)=O)C(=O)N[C@@H](CC(C)C)C(=O)N[C@@H](CCCCN)C(=O)N[C@@H](CC(N)=O)C(=O)N[C@@H](CC(C)C)C(=O)N[C@@H](C)C(=O)N[C@@H](C)C(=O)N[C@@H](CC(C)C)C(=O)N[C@@H](C)C(=O)N[C@@H](CCCCN)C(=O)N[C@@H](CCCCN)C(=O)N[C@H](C(=O)N[C@@H](CC(C)C)C(N)=O)[C@@H](C)CC [N5] | 45.6062 | 6.591
CC[C@H](C)[C@H](N)C(=O)N[C@@H](CC(N)=O)C(=O)N[C@@H](CC(C)C)C(=O)N[C@@H](CCCCN)C(=O)N[C@@H](C)C(=O)N[C@@H](CC(C)C)C(=O)N[C@@H](C)C(=O)N[C@@H](C)C(=O)N[C@@H](C)C(=O)N[C@@H](C)C(=O)N[C@@H](CCCCN)C(=O)N[C@@H](CCCCN)C(=O)N[C@H](C(=O)N[C@@H](CC(C)C)C(N)=O)[C@@H](C)CC [A9] | 23.1985 | -3.746
CC[C@H](C)[C@H](N)C(=O)N[C@@H](CC(N)=O)C(=O)N[C@@H](CC(C)C)C(=O)N[C@@H](CCCCN)C(=O)N[C@@H](C)C(=O)N[C@@H](CC(C)C)C(=O)N[C@@H](C)C(=O)N[C@@H](C)C(=O)N[C@@H](CC(C)C)C(=O)N[C@@H](C)C(=O)N[C@@H](CCCCN)C(=O)NCC(=O)N[C@H](C(=O)N[C@@H](CC(C)C)C(N)=O)[C@@H](C)CC [G12] | 17.8169 | 13.7945
CC[C@H](C)[C@H](N)C(=O)N[C@@H](Cc1c[nH]cn1)C(=O)N[C@@H](CC(C)C)C(=O)N[C@@H](CCCCN)C(=O)N[C@@H](C)C(=O)N[C@@H](CC(C)C)C(=O)N[C@@H](C)C(=O)N[C@@H](C)C(=O)N[C@@H](CC(C)C)C(=O)N[C@@H](C)C(=O)N[C@@H](CCCCN)C(=O)N[C@@H](CCCCN)C(=O)N[C@H](C(=O)N[C@@H](CC(C)C)C(N)=O)[C@@H](C)CC [H2] | 35.1529 | 5.675
CC[C@H](C)[C@H](NC(=O)[C@H](CCCCN)NC(=O)[C@H](CCCCN)NC(=O)[C@H](C)NC(=O)[C@H](CC(C)C)NC(=O)[C@H](C)NC(=O)[C@H](C)NC(=O)[C@H](CC(C)C)NC(=O)[C@H](C)NC(=O)[C@H](CCCCN)NC(=O)[C@H](CC(C)C)NC(=O)[C@H](CC(N)=O)NC(=O)CN)C(=O)N[C@@H](CC(C)C)C(N)=O [G1] | 44.9778 | 6.436
CC[C@H](C)[C@H](NC(=O)[C@H](CCCCN)NC(=O)[C@H](CCCCN)NC(=O)[C@H](C)NC(=O)[C@H](CC(C)C)NC(=O)[C@H](C)NC(=O)[C@H](C)NC(=O)[C@H](CC(C)C)NC(=O)[C@H](C)NC(=O)[C@H](CCCCN)NC(=O)[C@H](CC(C)C)NC(=O)[C@H](CC(N)=O)NC(=O)[C@H](C)N)C(=O)N[C@@H](CC(C)C)C(N)=O [A1] | 30.2333 | 5.463
CC[C@H](C)[C@H](N)C(=O)N[C@@H](CC(N)=O)C(=O)N[C@@H](CC(C)C)C(=O)N[C@@H](CCCCN)C(=O)N[C@@H](CCCCN)C(=O)N[C@@H](CC(C)C)C(=O)N[C@@H](C)C(=O)N[C@@H](C)C(=O)N[C@@H](CC(C)C)C(=O)N[C@@H](C)C(=O)N[C@@H](CCCCN)C(=O)N[C@@H](CCCCN)C(=O)N[C@H](C(=O)N[C@@H](CC(C)C)C(N)=O)[C@@H](C)CC [K5] | 39.1552 | 10.3023
CC[C@H](C)[C@H](N)C(=O)N[C@@H](CC(N)=O)C(=O)N[C@@H](CC(C)C)C(=O)N[C@@H](CCCCN)C(=O)N[C@@H](C)C(=O)N[C@@H](CC(C)C)C(=O)N[C@@H](C)C(=O)N[C@@H](C)C(=O)N[C@@H](CC(C)C)C(=O)N[C@@H](C)C(=O)N[C@@H](CCCCN)C(=O)N[C@@H](CCCCN)C(=O)N[C@H](C(=O)N[C@@H](CCC(N)=O)C(N)=O)[C@@H](C)CC [Q14] | 0.3995 | 1.109
CC[C@H](C)[C@H](N)C(=O)N[C@@H](CC(N)=O)C(=O)N[C@@H](CC(C)C)C(=O)N[C@@H](CCCCN)C(=O)N[C@@H](C)C(=O)N[C@@H](CC(C)C)C(=O)N[C@@H](C)C(=O)N[C@@H](C)C(=O)N[C@@H](CC(C)C)C(=O)N[C@@H](C)C(=O)N[C@@H](CCCCN)C(=O)N[C@@H](CC(C)C)C(=O)N[C@H](C(=O)N[C@@H](CC(C)C)C(N)=O)[C@@H](C)CC [L12] | 85.0992 | 80.1821
CC[C@H](C)[C@H](N)C(=O)N[C@@H](CC(N)=O)C(=O)N[C@@H](CC(C)C)C(=O)N[C@@H](CCCCN)C(=O)N[C@@H](C)C(=O)N[C@@H](CC(C)C)C(=O)N[C@@H](C)C(=O)N[C@@H](C)C(=O)N[C@@H](CC(C)C)C(=O)NCC(=O)N[C@@H](CCCCN)C(=O)N[C@@H](CCCCN)C(=O)N[C@H](C(=O)N[C@@H](CC(C)C)C(N)=O)[C@@H](C)CC [G10] | 20.1107 | 11.4267
CC[C@H](C)[C@H](N)C(=O)N[C@@H](CC(N)=O)C(=O)N[C@@H](CC(C)C)C(=O)N[C@@H](CCCCN)C(=O)N[C@@H](C)C(=O)N[C@@H](CC(C)C)C(=O)N[C@@H](C)C(=O)N[C@@H](Cc1ccc(O)cc1)C(=O)N[C@@H](CC(C)C)C(=O)N[C@@H](C)C(=O)N[C@@H](CCCCN)C(=O)N[C@@H](CCCCN)C(=O)N[C@H](C(=O)N[C@@H](CC(C)C)C(N)=O)[C@@H](C)CC [Y8] | 50.1841 | 22.0038
